In data set [1] the test system is S. aureus ATCC 29213. In words: Minimum inhibitory concentration. It counts as cell-based.
Data set [2] concerns E. coli ATCC 25922. In words: Minimum inhibitory concentration. It is filed as cell-based. The settings on record: without efflux pump inhibitor.
In data set [3] the target is GyrB (1–220) (Escherichia coli, UniProt P0AES6). Briefly: Isothermal titration calorimetry. It is filed as binding, E. coli. Conditions: for exothermic / thermodynamic signal in ITC: fragment screening, result in words. For orientation: Isothermal titration calorimetry measures the heat released or taken up as one component is titrated into another.
A short description of data set [4]: HepG2 cytotoxicity. It counts as cell-based. Conditions: human, HepG2 (ATCC HB-8065) cells.
Data set [5] can be described thus: Solubility test for ITC measurement. It counts as physicochemical. Conditions: DMSO (40–200 mM) and assay (ITC) buffer.

Several values for one entry are separate records, joined by “and”; a condition that tells them apart may be missing. Identical values can stand only once.

For the molecule `CNc1cccc2cc(C(=O)NCc3ccc(C(=O)O)cc3)c(=O)[nH]c12` [Compound 13f, 4-({[8-(Methylamino)-2-oxo-1,2-dihydroquinoline-3-carbonyl]amino}methyl)benzoic Acid], the “MIC S. aureus ATCC 29213” value in data set [1] was “no antibacterial activity”. Also, in data set [2], the “MIC E. coli ATCC 25922” value is “no antibacterial activity”.
As to `CCNc1cccc2ccc(=O)[nH]c12` [Compound 2q, 8-(ethylamino) quinolin-2(1H)-one], in data set [3], the “exothermic / thermodynamic signal in ITC” value is recorded as “no exothermic effects”.
Regarding `CNc1cccc2ccc(=O)[nH]c12` [Compound 2d, 8-(Methylamino)quinolin-2(1H)-one], the “ITC ΔH” value in data set [3] (Table 2 fragments) was −6.14 kcal/mol and -6.14^b kcal/mol.
For the molecule `CNc1cccc2cc(C(=O)Nc3ccc(C(=O)O)cc3)c(=O)[nH]c12` [Compound 13e, 4-{[8-(Methylamino)-2-oxo-1,2-dihydroquinoline-3-carbonyl]amino}benzoic Acid], the cytotoxicity at 48 h, 50 µM in data set [4] came out at 8.4%. Besides, in data set [3] (Table 3), the “ITC ΔH” value was -13.7 kcal/mol.
Regarding `CNc1cccc2cc(C(=O)Nc3cccc(C(=O)O)c3)c(=O)[nH]c12` [Compound 13a, 3-{[8-(Methylamino)-2-oxo-1,2-dihydroquinoline-3-carbonyl]amino}benzoic Acid], the “ITC ΔH” value in data set [3] (Table 3) is -12.9 kcal/mol.
`Nc1cccc2ccc(=O)[nH]c12` [Compound 2u, 8-aminoquinolin-2(1H)-one]: the “exothermic / thermodynamic signal in ITC” value in data set [3] was “no exothermic effects”.
With `CNc1cccc2cc(C(=O)NCCc3cccc(C(=O)O)c3)c(=O)[nH]c12` [Compound 13c, 3-(2-{[8-(Methylamino)-2-oxo-1,2-dihydroquinoline-3-carbonyl]amino}ethyl)benzoic Acid], the “ITC ΔH” value in data set [3] (Table 3) was -13.2 kcal/mol. In addition, the “MIC S. aureus ATCC 29213” value in data set [1] is listed as “no antibacterial activity”. Also, the “MIC E. coli ATCC 25922” value in data set [2] is “no antibacterial activity”.
As to `CNc1cccc2cc(C(=O)Nc3ccccc3)c(=O)[nH]c12` [Compound 13, 8-(Methylamino)-2-oxo-N-phenyl-1,2-dihydroquinoline-3-carboxamide], the “Solubility for ITC measurement” value in data set [5] was “low solubility”.
